According to US8143276B2, “4-thio substituted quinoline and naphthyridine compounds” (XTL Biopharmaceuticals Ltd., priority 2007, dated 2012):

Key:
HCV RNA = test: HCV Replicon RNA Assay (Taqman); assay type: cell-based, Hepatitis C virus; details: Hepatitis C virus; Huh-Luc-Neo cells, compound re-added at 24 h, HCV RNA by quantitative PCR; read-out: Replicon Inhibition*, Taqman
Method: (§1) Expression of HCV IRES driven luciferase reporter activity and HCV RNA is measured to obtain indirect and direct measures of replication of HCV RNA respectively. Inhibitors of HCV replication and/or proliferation are determined by initially identifying molecules that inhibit expression of the HCV IRES driven luciferase reporter in this HCV Replicon Luciferase Assay. Cell viability assays and control cell based luciferase assays are then run on hits identified in the HCV Replicon Luciferase Assay to eliminate cytoxic compounds and non-specific compounds which act by inhibiting the luciferase enzyme.
Day 0, Cell Seeding and Compound Treatment: Huh-Luc-Neo Cells are seeded at 25,000/well in an opaque-walled 96 plate with Growth Medium (DMEM phenol red free+PS+2 mM glutamine; 100 μl/well). The compounds to be tested are added to the experimental wells (10 μl/well at 10× assay concentration) and the cells are then incubated (5% CO2, 37° C.).
Day 1, Media Change and Compound Treatment: 24 hours after the initial compound treatment the cell culture media is aspirated from the wells and fresh Growth Medium is added (DMEM phenol red free+PS+2 mM glutamine; 100 μl/well). The compounds to be tested are then added to the appropriate experimental wells (10 μl/well at 10× assay concentration) and the cells are then incubated (5% CO2, 37° C.) for an additional 24 hrs.
Day 2, RNA Isolation and cDNA Synthesis: The cells are washed with 1× Phosphate Buffered Saline (PBS) once.
Day 3, Quantitative PCR Based Measurement of HCV RNA (Taqman Assay): Quantitative PCR analysis to measure HCV RNA expression from cDNA synthesized on Day 2 is performed using the ABI 9700 HT Sequence Detection System (Applied Biosystems) as previously described (Lohman et al, Science 285, 110-113, 1999). The data is analyzed and IC50s are determined using GraphPad Prism 4 software. Hits validated in the Replicon RNA Assay have IC50s<8.0 μM and show <30% inhibition of Cell Viability at a compound concentration of 50 μM (Cell Titer Glow Assay, cell viability assay conditions identical to HCV Replicon RNA Assay conditions).

HCV Replicon = HCV Replicon Luciferase Assay; assay type: cell-based, Hepatitis C virus; details: Hepatitis C virus; Huh-Luc-Neo cells, 48 h incubation, luciferase reporter; read-out: Replicon Inhibition*, Luciferase
Method: The identification of inhibitors of HCV replication and/or proliferation has been facilitated by the development of a cell-based system to study HCV replication. Inhibition of HCV replication may be performed using the HCV Replicon Assay developed in the laboratories of Bartenschlager (Lohman et al, Science 285, 110-113, 1999) and Rice (Blight et al, Science 290, 1972-1974, 2000). The assay is performed using the Huh-Luc-Neo cell line (Lohman et al, Science 285, 110-113, 1999). Huh-Luc-Neo cells are a human hepatoma cell line (Huh-7) stably expressing a bi-cistronic subgenomic replicon containing the HCV IRES in which the structural proteins of HCV have been deleted and replaced by a construct containing sequences coding for the firefly luciferase reporter gene, the neomycin selectable marker and the EMCV IRES to direct expression of a truncated HCV genome expressing the […] NS3, NS4A, NS4B, NS5A, and NS5B. HCV targets through which inhibitors could act to inhibit replication include the NS3 protease, the helicase/ATPase, NS5A, the NS5B-RNA dependent RNA polymerase, and the HCV IRES.
as §1
Day 0, Cell Seeding and Compound Treatment: Huh-Luc-Neo Cells are seeded at 25,000/well in an opaque-walled 96 plate with Growth Medium (DMEM phenol red free+PS+2 mM glutamine; 100 μl/well). The compounds to be tested are added to the experimental wells (10 μl/well at 10× assay concentration) and the cells are then incubated (5% CO2, 37° C.) for 48 h.
Day 2, Reagent Preparation and Luciferase Assay: The Bright-Glo Luciferase Assay Buffer (Promega) is thawed and equilibrated to room temperature prior to use. The lyophilized Bright-Glo Luciferase Assay Substrate is equilibrated to room temperature prior to use. 10 ml of Bright-Glo Luciferase Assay Buffer is transferred to 1 vial of Bright-Glo Luciferase Assay Substrate bottle and mixed by gently with a Vortex. 100 μl of Bright-Glo Luciferase Assay reagent (Bright-Glo Luciferase Assay Buffer+Bright-Glo Luciferase Assay Substrate Mixture) is added to each well. The well contents are mixed for 5 min. on an orbital shaker at room temperature to induce cell lysis and the luminescence is then measured using a luminometer. The data is analyzed and IC50s are determined using GraphPad Prism 4 software. Hits validated in the Replicon Luciferase assay have IC50s<8.0 μM and show <30% inhibition of Cell Viability at a compound concentration of 100 μM (Cell Titer Glow Assay, cell viability assay conditions identical to HCV Replicon Luciferase Assay conditions).

[1] = CellTiter-Glo Cell Viability Assay; assay type: cell-based, human; details: human, Huh-Luc-Neo cells, read-out: Cytotoxicity*
Method: Day 0, Cell Seeding and Compound Treatment: Huh-Luc-Neo Cells are seeded at 25,000/well in an opaque-walled 96 plate with Growth Medium (DMEM phenol red free+PS+2 mM glutamine; 100 ul/well). The compounds to be tested for inhibition of cell viability are added to the experimental wells (10 μl/well at 10× assay concentration) and the cells are then incubated (5% CO2, 37° C.) for 48 h.
Day 2, Reagent Preparation and Assay: The CellTiter-Glo Buffer is thawed and equilibrated to room temperature prior to use. The lyophilized CellTiter-Glo Substrate is equilibrated to room temperature prior to use. 10 ml of CellTiter-Glo Buffer is transferred to 1 vial of CellTiter-Glo Substrate and mixed by gently with a Vortex. 100 μl of CellTiter-Glo Assay reagent (CellTiter-Glo Buffer+CellTiter-Glo Substrate Mixture) is added to each well. The well contents are mixed for 5 min. on an orbital shaker at room temperature to induce cell lysis and the luminescence is then measured using a luminometer.

SMILES	IC50 (HCV RNA) [nM]	IC50 (HCV Replicon) [nM]	IC50 at 48 h [1] [µM]
Cn1c(=O)cc(Sc2ccc(Br)cc2)c2ccccc21 [compound 001]	< 1000	1000 to 10000	> 100
Cn1c(=O)cc(Sc2ccc(Cl)cc2)c2ccccc21 [compound 002]	1000 to 10000	1000 to 10000	> 100
Cn1c(=O)cc(Sc2ccc(F)cc2)c2ccccc21 [compound 003]	1000 to 10000	1000 to 10000	> 100
Cn1c(=O)cc(Sc2c(Cl)cccc2Cl)c2ccccc21 [compound 004]	< 1000	1000 to 10000	> 100
Cn1c(=O)cc(Sc2cc(Cl)ccc2Cl)c2ccccc21 [compound 006]	1000 to 10000	10000 to 100000	> 100
Cn1c(=O)cc(Sc2cccc(F)c2)c2ccccc21 [compound 007]	1000 to 10000	1000 to 10000	> 100
Cn1c(=O)cc(Sc2ccc(N)cc2)c2ccccc21 [compound 009]	< 1000	< 1000	> 100
CCn1c(=O)cc(Sc2ccc(Br)cc2)c2ccccc21 [compound 010]	< 1000	1000 to 10000	> 100
Cn1c(=O)cc(Sc2ccc(Br)cc2)c2cc(Cl)ccc21 [compound 011]	1000 to 10000	1000 to 10000	> 100
COc1ccc(Sc2cc(=O)n(C)c3ccccc23)cc1 [compound 012]	10000 to 100000	1000 to 10000	> 100
Cn1c(=O)cc(Sc2ccc(C(C)(C)C)cc2)c2ccccc21 [compound 013]	< 1000	1000 to 10000	> 100
Cn1c(=O)cc(Sc2ccc(I)cc2)c2ccccc21 [compound 014]	< 1000	1000 to 10000	> 100
Cn1c(=O)cc(Sc2ccc(Cl)cc2)c2cc(F)ccc21 [compound 015]	1000 to 10000	1000 to 10000	> 100
Cc1ccc(Sc2cc(=O)n(C)c3ccc(F)cc23)cc1 [compound 016]	1000 to 10000	1000 to 10000	> 100
CC(=O)Nc1ccc(Sc2cc(=O)n(C)c3ccccc23)cc1 [compound 017]	1000 to 10000	1000 to 10000	> 100
Cn1c(=O)cc(Sc2ccc(F)cc2)c2cc(F)ccc21 [compound 018]	1000 to 10000	1000 to 10000	> 100
Cn1c(=O)cc(Sc2ccc(N)cc2)c2cccnc21 [compound 019]	1000 to 10000	< 1000	> 100
Cc1ccc(Sc2cc(=O)n(C)c3ncccc23)cc1 [compound 020]	1000 to 10000	< 1000	> 100
COCCOCC(=O)Nc1ccc(Sc2cc(=O)n(C)c3ccccc23)cc1 [compound 021]	1000 to 10000	< 1000	> 100
Cn1c(=O)cc(Sc2ccc(NC(=O)[C@H](Cc3ccccc3)NC(=O)OC(C)(C)C)cc2)c2ccccc21 [compound 022]	1000 to 10000	1000 to 10000	> 100
C[C@H](OCc1ccccc1)[C@@H](NC(=O)OC(C)(C)C)C(=O)Nc1ccc(Sc2cc(=O)n(C)c3ccccc23)cc1 [compound 023]	1000 to 10000	1000 to 10000	> 100
Cn1c(=O)cc(Sc2ccc(NC(=O)[C@@H](NC(=O)OC(C)(C)C)C3CCCCC3)cc2)c2ccccc21 [compound 024]	1000 to 10000	< 1000	> 100
Cn1c(=O)cc(Sc2ccc(NC(=O)[C@H](Cc3ccc(F)cc3)NC(=O)OC(C)(C)C)cc2)c2ccccc21 [compound 025]	1000 to 10000	1000 to 10000	> 100
Cc1ccc2c(c1)c(Sc1ccc(F)cc1)cc(=O)n2C [compound 026]	< 1000	< 1000	10 to 100
Cn1c(=O)cc(Sc2ccc(N)cc2)c2ccc(Cl)cc21 [compound 027]	< 1000	< 1000	10 to 100
Cc1ccc2c(c1)c(Sc1ccc(Cl)cc1)cc(=O)n2C [compound 028]	< 1000	< 1000	10 to 100
COc1ccc2c(c1)c(Sc1ccc(C)cc1)cc(=O)n2C [compound 029]	< 1000	< 1000	> 100
COc1ccc2c(c1)c(Sc1ccc(N)cc1)cc(=O)n2C [compound 030]	< 1000	< 1000	10 to 100
Cc1ccc2c(c1)c(Sc1ccc(Br)cc1)cc(=O)n2C [compound 031]	< 1000	< 1000	10 to 100
Cc1ccc(Sc2cc(=O)n(C)c3ccc(C)cc23)cc1 [compound 032]	< 1000	< 1000	10 to 100
